Measurements taken from patent publication US9125913B2, “Bcl-2-selective apoptosis-inducing agents for the treatment of cancer and immune diseases” (AbbVie Inc., priority 2008, dated 2015).

System: GST-Bcl-2
Assay: TR-FRET binding assay, Bcl-2
Conditions: TR-FRET Ki values
Outline: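 Ki values come from Wang's competitive-binding equation applied to TR-FRET signal (excitation 340/35 nm; emission 520/525 nm F-Bak peptide, 495/510 nm Tb antibody). Protein, probe and antibody incubated with compound 3 h at room temperature; dilution series began at 50 μM as 2× stock in 10% DMSO.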

Compound	Binding selectivity ratio (Bcl-XL Ki/Bcl-2 Ki)
O=C(NS(=O)(=O)c1ccc(NCC2CCOCC2)c([N+](=O)[O-])c1)c1ccc(N2CCN(Cc3cc(N4CCOCC4)ccc3-c3ccc(Cl)cc3)CC2)cc1Oc1cccc2[nH]ccc12 [EXAMPLE 198, 4-{4-[(4′-chloro-4-morpholin-4-yl-1,1′-biphenyl-2-yl)methyl]piperazin-1-yl}-2-(1H-indol-4-yloxy)-N-({3-nitro-4-[(tetrahydro-2H-pyran-4-ylmethyl)amino]phenyl}sulfonyl)benzamide]	>166.4
CC1(C)CCC(CN2CCN(c3ccc(C(=O)NS(=O)(=O)c4cnc(O[C@@H]5CCN(CC(F)F)C5)c(Cl)c4)c(Oc4cccc5[nH]ncc45)c3)CC2)=C(c2ccc(Cl)cc2)C1 [EXAMPLE 422, N-[(5-chloro-6-{[(3R)-1-(2,2-difluoroethyl)pyrrolidin-3-yl]oxy}pyridin-3-yl)sulfonyl]-4-(4-{[2-(4-chlorophenyl)-4,4-dimethylcyclohex-1-en-1-yl]methyl}piperazin-1-yl)-2-(1H-indazol-4-yloxy)benzamide]	4073
CC1(C)CCC(CN2CCN(c3ccc(C(=O)NS(=O)(=O)c4ccc(NCCCN5CCCC5=O)c([N+](=O)[O-])c4)c(Oc4ccc5[nH]ccc5c4)c3)CC2)=C(c2ccc(Cl)cc2)C1 [EXAMPLE 374, 4-(4-{[2-(4-chlorophenyl)-4,4-dimethylcyclohex-1-en-1-yl]methyl}piperazin-1-yl)-2-(1H-indol-5-yloxy)-N-[(3-nitro-4-{[3-(2-oxopyrrolidin-1-yl)propyl]amino}phenyl)sulfonyl]benzamide]	>291.2
O=C(NS(=O)(=O)c1ccc(NCC2CCOCC2)c([N+](=O)[O-])c1)c1ccc(N2CCN(Cc3cc(OCCCN4CCCCC4)ccc3-c3ccc(Cl)cc3)CC2)cc1Oc1ccccc1 [Example 114, 4-(4-{[4′-chloro-4-(3-piperidin-1-ylpropoxy)-1,1′-biphenyl-2-yl]methyl}piperazin-1-yl)-N-({3-nitro-4-[(tetrahydro-2H-pyran-4-ylmethyl)amino]phenyl}sulfonyl)-2-phenoxybenzamide]	149.2
CC1(C)CCC(CN2CCN(c3ccc(C(=O)NS(=O)(=O)c4ccc(N[C@H]5CC[C@H](N6CCOCC6)CC5)c([N+](=O)[O-])c4)c(Oc4cccc5[nH]cnc45)c3)CC2)=C(c2ccc(Cl)cc2)C1 [EXAMPLE 452, Trans-2-(1H-benzimidazol-4-yloxy)-4-(4-{[2-(4-chlorophenyl)-4,4-dimethylcyclohex-1-en-1-yl]methyl}piperazin-1-yl)-N-({4-[(4-morpholin-4-ylcyclohexyl)amino]-3-nitrophenyl}sulfonyl)benzamide]	600.39
CC1(C)CCC(CN2CCN(c3ccc(C(=O)NS(=O)(=O)c4ccc(NCCN5CCNC5=O)c([N+](=O)[O-])c4)c(Oc4ccc5[nH]ccc5c4)c3)CC2)=C(c2ccc(Cl)cc2)C1 [EXAMPLE 268, 4-(4-{[2-(4-chlorophenyl)-4,4-dimethylcyclohex-1-en-1-yl]methyl}piperazin-1-yl)-2-(1H-indol-5-yloxy)-N-[(3-nitro-4-{[2-(2-oxoimidazolidin-1-yl)ethyl]amino}phenyl)sulfonyl]benzamide]	1563.9
CC1(C)CCC(CN2CCN(c3ccc(C(=O)NS(=O)(=O)c4cnc(OCCN5CCOCC5)c(C#N)c4)c(Oc4cccc5[nH]ccc45)c3)CC2)=C(c2ccc(Cl)cc2)C1 [EXAMPLE 392, 4-(4-{[2-(4-chlorophenyl)-4,4-dimethylcyclohex-1-en-1-yl]methyl}piperazin-1-yl)-N-{[5-cyano-6-(2-morpholin-4-ylethoxy)pyridin-3-yl]sulfonyl}-2-(1H-indol-4-yloxy)benzamide]	320.2
CC1(C)CCC(CN2CCN(c3ccc(C(=O)NS(=O)(=O)c4ccc(N[C@@H]5CCN(Cc6ccccc6)C[C@@H]5O)c([N+](=O)[O-])c4)c(Oc4ccc5[nH]ccc5c4)c3)CC2)=C(c2ccc(Cl)cc2)C1 [EXAMPLE 187, N-[(4-{[(3S,4R)-1-benzyl-3-hydroxypiperidin-4-yl]amino}-3-nitrophenyl)sulfonyl]-4-(4-{[2-(4-chlorophenyl)-4,4-dimethylcyclohex-1-en-1-yl]methyl}piperazin-1-yl)-2-(1H-indol-5-yloxy)benzamide]	>2003.9
CC1(C)CCC(CN2CCN(c3ccc(C(=O)NS(=O)(=O)c4ccc(S(C)(=O)=O)cc4)c(Oc4cccc5[nH]ccc45)c3)CC2)=C(c2ccc(Cl)cc2)C1 [EXAMPLE 383, 4-(4-{[2-(4-chlorophenyl)-4,4-dimethylcyclohex-1-en-1-yl]methyl}piperazin-1-yl)-2-(1H-indol-4-yloxy)-N-{[4-(methylsulfonyl)phenyl]sulfonyl}benzamide]	>304.1
O=C(NS(=O)(=O)c1ccc(NCC2CCOCC2)c([N+](=O)[O-])c1)c1ccc(N2CCN(CC3=C(c4ccc(Cl)cc4)CCC(O)C3)CC2)cc1Oc1ccc2[nH]ccc2c1 (stereo not shown) [EXAMPLE 248, 4-(4-{[2-(4-chlorophenyl)-5-hydroxycyclohex-1-en-1-yl]methyl}piperazin-1-yl)-2-(1H-indol-5-yloxy)-N-({3-nitro-4-[(tetrahydro-2H-pyran-4-ylmethyl)amino]phenyl}sulfonyl)benzamide]	12079.6
CN1CCC(Nc2ccc(S(=O)(=O)NC(=O)c3ccc(N4CCN(CC5=C(c6ccc(Cl)cc6)CCC(O)C5)CC4)cc3Oc3ccc4[nH]ccc4c3)cc2[N+](=O)[O-])CC1 (stereo not shown) [EXAMPLE 224, 4-(4-{[2-(4-chlorophenyl)-5-hydroxycyclohex-1-en-1-yl]methyl}piperazin-1-yl)-2-(1H-indol-5-yloxy)-N-({4-[(1-methylpiperidin-4-yl)amino]-3-nitrophenyl}sulfonyl)benzamide]	>99.9
CC1(C)CCC(CN2CCN(c3ccc(C(=O)NS(=O)(=O)c4cnc(NC5CCN(C6CC6)CC5)c(Cl)c4)c(Oc4cccc5[nH]cnc45)c3)CC2)=C(c2ccc(Cl)cc2)C1 [EXAMPLE 449, 2-(1H-benzimidazol-4-yloxy)-N-({5-chloro-6-[(1-cyclopropylpiperidin-4-yl)amino]pyridin-3-yl}sulfonyl)-4-(4-{[2-(4-chlorophenyl)-4,4-dimethylcyclohex-1-en-1-yl]methyl}piperazin-1-yl)benzamide]	74.4
CNc1ccc(S(=O)(=O)NC(=O)c2ccc(N3CCN(CC4=C(c5ccc(Cl)cc5)CC(C)(C)CC4)CC3)cc2Oc2ccc3[nH]ccc3c2)cc1S(=O)(=O)C(F)(F)F [EXAMPLE 328, 4-(4-{[2-(4-chlorophenyl)-4,4-dimethylcyclohex-1-en-1-yl]methyl}piperazin-1-yl)-2-(1H-indol-5-yloxy)-N-({4-(methylamino)-3-[(trifluoromethyl)sulfonyl]phenyl}sulfonyl)benzamide]	>355.0
CC(C1=C(c2ccc(Cl)cc2)CC(C)(C)CC1)N1CCN(c2ccc(C(=O)NS(=O)(=O)c3ccc(NCCCN4CCOCC4)c([N+](=O)[O-])c3)c(Oc3ccc4[nH]ccc4c3)c2)CC1 (stereo not shown) [EXAMPLE 257, 4-(4-{1-[2-(4-chlorophenyl)-4,4-dimethylcyclohex-1-en-1-yl]ethyl}piperazin-1-yl)-2-(1H-indol-5-yloxy)-N-({4-[(3-morpholin-4-ylpropyl)amino]-3-nitrophenyl}sulfonyl)benzamide]	100.2
CC1(C)CCC(CN2CCN(c3ccc(C(=O)NS(=O)(=O)c4ccc(NCC5CCOCC5)c(S(=O)(=O)C(F)(F)F)c4)c(Oc4ccc5[nH]ccc5c4)c3)CC2)=C(c2ccc(Cl)cc2)C1 [EXAMPLE 304, 4-(4-{[2-(4-chlorophenyl)-4,4-dimethylcyclohex-1-en-1-yl]methyl}piperazin-1-yl)-2-(1H-indol-5-yloxy)-N-({4-[(tetrahydro-2H-pyran-4-ylmethyl)amino]-3-[(trifluoromethyl)sulfonyl]phenyl}sulfonyl)benzamide]	>973.5
CN1CC(Nc2ccc(S(=O)(=O)NC(=O)c3ccc(N4CCN(CC5=C(c6ccc(Cl)cc6)CC(C)(C)CC5)CC4)cc3Oc3ccc4[nH]ccc4c3)cc2[N+](=O)[O-])CC1=O (stereo not shown) [EXAMPLE 281, 4-(4-{[2-(4-chlorophenyl)-4,4-dimethylcyclohex-1-en-1-yl]methyl}piperazin-1-yl)-2-(1H-indol-5-yloxy)-N-({4-[(1-methyl-5-oxopyrrolidin-3-yl)amino]-3-nitrophenyl}sulfonyl)benzamide]	1558.9
CN(C)CC(=O)N1CC[C@@H](Nc2ccc(S(=O)(=O)NC(=O)c3ccc(N4CCN(CC5=C(c6ccc(Cl)cc6)CC(C)(C)CC5)CC4)cc3Oc3cccc4[nH]cnc34)cc2[N+](=O)[O-])C1 [EXAMPLE 430, 2-(1H-benzimidazol-4-yloxy)-4-(4-{[2-(4-chlorophenyl)-4,4-dimethylcyclohex-1-en-1-yl]methyl}piperazin-1-yl)-N-[(4-{[(3R)-1-(N,N-dimethylglycyl)pyrrolidin-3-yl]amino}-3-nitrophenyl)sulfonyl]benzamide]	99.767
CN1CCC(Nc2ccc(S(=O)(=O)NC(=O)c3ccc(N4CCN(CC5=C(c6ccc(Cl)cc6)CC(C)(C)CC5)CC4)cc3Nc3cccnc3)cc2[N+](=O)[O-])CC1 [EXAMPLE 396, 4-(4-{[2-(4-chlorophenyl)-4,4-dimethylcyclohex-1-en-1-yl]methyl}piperazin-1-yl)-N-({4-[(1-methylpiperidin-4-yl)amino]-3-nitrophenyl}sulfonyl)-2-(pyridin-3-ylamino)benzamide]	>5706
CC1(C)CCC(CN2CCN(c3ccc(C(=O)NS(=O)(=O)c4cnc(OC[C@@H]5CCN(C(CF)CF)C5)c(Cl)c4)c(Oc4cccc5[nH]ncc45)c3)CC2)=C(c2ccc(Cl)cc2)C1 [EXAMPLE 444, N-{[5-chloro-6-({(3R)-1-[2-fluoro-1-(fluoromethyl)ethyl]pyrrolidin-3-yl}methoxy)pyridin-3-yl]sulfonyl}-4-(4-{[2-(4-chlorophenyl)-4,4-dimethylcyclohex-1-en-1-yl]methyl}piperazin-1-yl)-2-(1H-indazol-4-yloxy)benzamide]	727.625
